# Measurements from patent US9145392B2, “Imidazole amines as modulators of kinase activity” (Merck Patent GmbH, priority 2011, dated 2015).
# Tests used:
# [1] = molecular target: His-AKT (Full Length) (Homo sapiens (Human), UniProt P31749); assay: AKT enzyme assay; type: biochemical; conditions: read-out: IC50 AKT
# Experimental: A TTP Mosquito liquid handling instrument is used to place 125n1 of the appropriate concentration of inhibitor in 100% DMSO (for a dose response curve calculation) into each well of a 384-well plate.
# The reaction is incubated for 90 min at 25 C, and then stopped by the addition of 70 μl of Stop buffer (100 mM HEPES pH 7.5, 0.015% Brij-35, 10 mM EDTA (Sigma, E7889)).
# The plate is read on a Caliper LC 3000 in an Off-Chip mobility shift assay format, using the following parameters for a 12-sipper chip: screening pressure −2.3 psi, upstream voltage −500, and downstream voltage −3000. These conditions cause unphosphorylated substrate and phosphorylated product peptide to resolve as separate peaks allowing direct measurement of percentage of conversion of substrate to product. The percent conversion can be plotted against concentration of inhibitor to produce a sigmoidal dose response curve, from which an IC50 can be calculated.
# [2] = molecular target: P70S6K (T412E mutant) (Homo sapiens (Human), UniProt P23443, T412E); assay: P70S6K enzyme assay; type: biochemical; conditions: read-out: IC50 p70S6K
# Sequence of P70S6K (T412E mutant) (P23443 whole entry T412E): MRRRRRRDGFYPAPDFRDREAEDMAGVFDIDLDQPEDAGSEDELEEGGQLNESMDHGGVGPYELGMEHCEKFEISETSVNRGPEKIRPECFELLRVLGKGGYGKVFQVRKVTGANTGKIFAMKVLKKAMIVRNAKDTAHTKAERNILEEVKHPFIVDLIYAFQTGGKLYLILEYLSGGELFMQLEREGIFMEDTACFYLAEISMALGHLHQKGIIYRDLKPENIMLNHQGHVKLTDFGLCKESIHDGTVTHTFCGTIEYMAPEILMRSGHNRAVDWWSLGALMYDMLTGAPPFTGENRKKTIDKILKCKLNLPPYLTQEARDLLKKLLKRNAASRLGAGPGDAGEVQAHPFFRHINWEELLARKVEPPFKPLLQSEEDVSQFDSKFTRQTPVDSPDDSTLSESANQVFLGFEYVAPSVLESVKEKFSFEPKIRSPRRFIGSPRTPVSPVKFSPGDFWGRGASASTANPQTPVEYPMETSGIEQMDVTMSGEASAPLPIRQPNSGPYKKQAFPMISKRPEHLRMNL
# Experimental: P70S6K inhibitor compounds are diluted and plated in 96 well plates. […] The reaction is incubated for 90 min at 25° C., before the addition of 10 mM EDTA to stop the reaction. The proportion of substrate and product (phosphorylated) peptide is analysed on a Caliper Life Sciences Lab Chip 3000, using a pressure of −1.4 psi, and upstream and downstream voltages of −3000 and −700 respectively. Product peaks are resolved before substrate peaks on the resulting chromatograms.
# Sequence of His-AKT (Full Length) (P31749 whole entry): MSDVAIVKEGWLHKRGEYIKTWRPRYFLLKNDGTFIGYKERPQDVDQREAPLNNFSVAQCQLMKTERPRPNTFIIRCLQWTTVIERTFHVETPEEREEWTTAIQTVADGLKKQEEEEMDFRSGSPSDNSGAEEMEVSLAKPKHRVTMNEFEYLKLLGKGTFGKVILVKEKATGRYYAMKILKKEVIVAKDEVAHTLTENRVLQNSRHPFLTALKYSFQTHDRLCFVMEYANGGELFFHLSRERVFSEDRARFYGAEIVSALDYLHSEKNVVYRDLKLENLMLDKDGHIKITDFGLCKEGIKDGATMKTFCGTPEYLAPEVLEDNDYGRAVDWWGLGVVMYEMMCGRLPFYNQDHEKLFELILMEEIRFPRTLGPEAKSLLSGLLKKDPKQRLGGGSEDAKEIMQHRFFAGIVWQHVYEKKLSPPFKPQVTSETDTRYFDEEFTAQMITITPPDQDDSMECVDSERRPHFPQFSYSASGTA
SMILES,IC50 [1],IC50 [2]
"Nc1ncnc(N2CCC(c3nc(-c4cccc(C(F)(F)F)c4)c[nH]3)CC2)c1Br [Compound 3, 5-Bromo-6-{4-[4-(3-trifluoromethyl-phenyl)-1H-imidazol-2-yl]-piperidin-1-yl}-pyrimidin-4-ylamine]",1700 nM,6.2 nM
"FC(F)(F)c1cccc(-c2c[nH]c(C3CCN(c4ncncc4Br)CC3)n2)c1 [Compound 4, 5-Bromo-4-{4-[4-(3-trifluoromethyl-phenyl)-1H-imidazol-2-yl]-piperidin-1-yl}-pyrimidine]",6100 nM,31.9 nM
"Cn1cc(-c2ccc(F)c(C(F)(F)F)c2)nc1C1CCN(c2ncnc(N)c2-c2ccc(F)cc2)CC1 [Compound 10, 5-(4-Fluoro-phenyl)-6-{4-[4-(4-fluoro-3-trifluoromethyl-phenyl)-1-methyl-1H-imidazol-2-yl]-piperidin-1-yl}-pyrimidin-4-ylamine]",2200 nM,3.4 nM
"COc1ccc(-c2c(N)ncnc2N2CCC(c3nc(-c4ccc(F)c(C(F)(F)F)c4)cn3C)CC2)cc1 [Compound 11, 6-{4-[4-(4-Fluoro-3-trifluoromethyl-phenyl)-1-methyl-1H-imidazol-2-yl]-piperidin-1-yl}-5-(4-methoxy-phenyl)-pyrimidin-4-ylamine]",520 nM,4.7 nM
"Cc1ccc(-c2c(N)ncnc2N2CCC(c3nc(-c4ccc(F)c(C(F)(F)F)c4)cn3C)CC2)cc1 [Compound 13, 6-{4-[4-(4-Fluoro-3-trifluoromethyl-phenyl)-1-methyl-1H-imidazol-2-yl]-piperidin-1-yl}-5-p-tolyl-pyrimidin-4-ylamine]",8300 nM,7.3 nM
"Cn1cc(-c2ccc(F)c(C(F)(F)F)c2)nc1C1CCN(c2ncnc(N)c2-c2cccc(C#N)c2)CC1 [Compound 15, 3-(4-Amino-6-{4-[4-(4-fluoro-3-trifluoromethyl-phenyl)-1-methyl-1H-imidazol-2-yl]-piperidin-1-yl}-pyrimidin-5-yl)-benzonitrile]",150 nM,11 nM
"Cn1cc(-c2ccc(F)c(C(F)(F)F)c2)nc1C1CCN(c2ncnc(N)c2-c2ccc(C#N)cc2)CC1 [Compound 17, 4-(4-Amino-6-{4-[4-(4-fluoro-3-trifluoromethyl-phenyl)-1-methyl-1H-imidazol-2-yl]-piperidin-1-yl}-pyrimidin-5-yl)-benzonitrile]",2.7 nM,2.7 nM
"Cc1ccc(-c2c(N)ncnc2N2CCC(c3nc(-c4ccc(F)c(C(F)(F)F)c4)cn3C)CC2)s1 [Compound 20, 6-{4-[4-(4-Fluoro-3-trifluoromethyl-phenyl)-1-methyl-1H-imidazol-2-yl]-piperidin-1-yl}-5-(5-methyl-thiophen-2-yl)-pyrimidin-4-ylamine]",2700 nM,7.1 nM
"CN(C)CCn1cc(-c2ccc(F)c(C(F)(F)F)c2)nc1C1CCN(c2ncnc(N)c2C(N)=O)CC1 [Compound 38, 4-Amino-6-{4-[1-(2-dimethylamino-ethyl)-4-(4-fluoro-3-trifluoromethyl-phenyl)-1H-imidazol-2-yl]-piperidin-1-yl}-pyrimidine-5-carboxylic acid amide]",84 nM,3.5 nM
"Cn1cc(-c2ccc(F)c(C(F)(F)F)c2)nc1C1CCN(c2ncnc(N)c2/C=C/C(N)=O)CC1 [Compound 46, (E)-3-(4-Amino-6-{4-[4-(4-fluoro-3-trifluoromethyl-phenyl)-1-methyl-1H-imidazol-2-yl]-piperidin-1-yl}-pyrimidin-5-yl)-acrylamide]",,14 nM
"COc1cncc(-c2c(N)ncnc2N2CCC(c3nc(-c4ccc(F)c(C(F)(F)F)c4)cn3C)CC2)c1 [Compound 47, 6-{4-[4-(4-Fluoro-3-trifluoromethyl-phenyl)-1-methyl-1H-imidazol-2-yl]-piperidin-1-yl}-5-(5-methoxy-pyridin-3-yl)-pyrimidin-4-ylamine]",,4.3 nM
"Cn1cc(-c2ccc(F)c(C(F)(F)F)c2)nc1C1CCN(c2ncnc(N)c2-c2ccc(Cl)nc2)CC1 [Compound 50, 5-(6-Chloro-pyridin-3-yl)-6-{4-[4-(4-fluoro-3-trifluoromethyl-phenyl)-1-methyl-1H-imidazol-2-yl]-piperidin-1-yl}-pyrimidin-4-ylamine]",,4.5 nM
"Cn1cc(-c2ccc(F)c(C(F)(F)F)c2)nc1C1CCN(c2ncnc(N)c2-c2cccc(Cl)c2)CC1 [Compound 51, 5-(3-Chloro-phenyl)-6-{4-[4-(4-fluoro-3-trifluoromethyl-phenyl)-1-methyl-1H-imidazol-2-yl]-piperidin-1-yl}-pyrimidin-4-ylamine]",,22 nM
"Cn1cc(-c2ccc(F)c(C(F)(F)F)c2)nc1C1CCN(c2ncnc(N)c2-c2ccc(C#N)c(F)c2)CC1 [Compound 52, 4-(4-Amino-6-{4-[4-(4-fluoro-3-trifluoromethyl-phenyl)-1-methyl-1H-imidazol-2-yl]-piperidin-1-yl}-pyrimidin-5-yl)-2-fluoro-benzonitrile]",,5 nM

# Compounds with a lower IC50 [2], results first:
IC50 [1],IC50 [2],SMILES
66 nM,2.1 nM,"Cn1cc(-c2ccc(F)c(C(F)(F)F)c2)nc1C1CCN(c2ncnc(N)c2Br)CC1 [Compound 1, 5-Bromo-6-{4-[4-(4-fluoro-3-trifluoromethyl-phenyl)-1-methyl-1H-imidazol-2-yl]-piperidin-1-yl}-pyrimidin-4-ylamine]"
160 nM,0.6 nM,"Cn1cc(-c2ccc(F)c(C(F)(F)F)c2)nc1C1CCN(c2ncnc(N)c2C=O)CC1 [Compound 6, 4-Amino-6-{4-[4-(4-fluoro-3-trifluoromethyl-phenyl)-1-methyl-1H-imidazol-2-yl]-piperidin-1-yl}-pyrimidine-5-carbaldehyde]"
110 nM,1.5 nM,"Cn1cc(-c2ccc(F)c(C(F)(F)F)c2)nc1C1CCN(c2ncnc(N)c2C#N)CC1 [Compound 7, 4-Amino-6-{4-[4-(4-fluoro-3-trifluoromethyl-phenyl)-1-methyl-1H-imidazol-2-yl]-piperidin-1-yl}-pyrimidine-5-carbonitrile]"
9.1 nM,1.8 nM,"CN(C)CCn1cc(-c2ccc(F)c(C(F)(F)F)c2)nc1C1CCN(c2ncnc(N)c2C#N)CC1 [Compound 8, 4-Amino-6-{4-[1-(2-dimethylamino-ethyl)-4-(4-fluoro-3-trifluoromethyl-phenyl)-1H-imidazol-2-yl]-piperidin-1-yl}-pyrimidine-5-carbonitrile]"
440 nM,2.1 nM,"COc1c(N)ncnc1N1CCC(c2nc(-c3ccc(F)c(C(F)(F)F)c3)cn2C)CC1 [Compound 9, 6-{4-[4-(4-Fluoro-3-trifluoromethyl-phenyl)-1-methyl-1H-imidazol-2-yl]-piperidin-1-yl}-5-methoxy-pyrimidin-4-ylamine]"
250 nM,1.9 nM,"Cn1cc(-c2ccc(F)c(C(F)(F)F)c2)nc1C1CCN(c2ncnc(N)c2-c2ccc(CO)cc2)CC1 [Compound 14, [4-(4-Amino-6-{4-[4-(4-fluoro-3-trifluoromethyl-phenyl)-1-methyl-1H-imidazol-2-yl]-piperidin-1-yl}-pyrimidin-5-yl)-phenyl]-methanol]"
1700 nM,2.2 nM,"Cc1ccc(-c2c(N)ncnc2N2CCC(c3nc(-c4ccc(F)c(C(F)(F)F)c4)cn3C)CC2)cn1 [Compound 19, 6-{4-[4-(4-Fluoro-3-trifluoromethyl-phenyl)-1-methyl-1H-imidazol-2-yl]-piperidin-1-yl}-5-(6-methyl-pyridin-3-yl)-pyrimidin-4-ylamine]"
1100 nM,2.2 nM,"Cn1cc(-c2ccc(F)c(C(F)(F)F)c2)nc1C1CCN(c2ncnc(N)c2CO)CC1 [Compound 36, (4-Amino-6-{4-[4-(4-fluoro-3-trifluoromethyl-phenyl)-1-methyl-1H-imidazol-2-yl]-piperidin-1-yl}-pyrimidin-5-yl)-methanol]"
1600 nM,2.6 nM,"Cn1cc(-c2ccc(F)c(C(F)(F)F)c2)nc1C1CCN(c2ncnc(N)c2C(N)=O)CC1 [Compound 37, 4-Amino-6-{4-[4-(4-fluoro-3-trifluoromethyl-phenyl)-1-methyl-1H-imidazol-2-yl]-piperidin-1-yl}-pyrimidine-5-carboxamide]"
860 nM,1.4 nM,"Cn1cc(-c2ccc(F)c(C(F)(F)F)c2)nc1C1CCN(c2ncnc(N)c2-c2ccncc2)CC1 [Compound 39, 6-{4-[4-(4-Fluoro-3-trifluoromethyl-phenyl)-1-methyl-1H-imidazol-2-yl]-piperidin-1-yl}-5-pyridin-4-yl-pyrimidin-4-ylamine]"
2700 nM,2.3 nM,"Cn1cc(-c2ccc(F)c(C(F)(F)F)c2)nc1C1CCN(c2ncnc(N)c2-c2ccc(N)nc2)CC1 [Compound 40, 5-(6-Amino-pyridin-3-yl)-6-{4-[4-(4-fluoro-3-trifluoromethyl-phenyl)-1-methyl-1H-imidazol-2-yl]-piperidin-1-yl}-pyrimidin-4-ylamine]"
,0.6 nM,"CCc1c(N)ncnc1N1CCC(c2nc(-c3ccnc(C(F)(F)F)c3)cn2CCNC)CC1 [Compound 171, 5-ethyl-6-(4-(1-(2-(methylamino)ethyl)-4-(2-(trifluoromethyl)pyridin-4-yl)-1H-imidazol-2-yl)piperidin-1-yl)pyrimidin-4-amine]"
,0.8 nM,CCOc1c(N)ncnc1N1CCC(c2nc(-c3ccc(F)c(Cl)c3)cn2CCN2CCCC2)CC1 [Compound 289]
